According to paper PMC11758220, “Identification of a Privileged Scaffold for Inhibition of Sterol Transport Proteins through the Synthesis and Ring Distortion of Diverse, Pseudo-Natural Products” (ACS Central Science, 2025):

Columns and labels:
[1] = target: T1, STARD4 (Homo sapiens, UniProt Q96DR4, C75S); experiment: Differential scanning fluorimetry (DSF), STARD4; type: binding; conditions: for STARD4 (DSF) ΔTm / ΔTm at 10 µM: single dose, Dose = 10 µM; for Kd: apparent Kd, mean of three experiments run in technical duplicates, read-out: STARD4 Kd,app (DSF); for STARD4 (DSF) ΔTmmax: maximal thermal shift
T1 construct: STARD4(2-205; C75S); made in house; host or cells: E. coli BL21(DE3)
T1 sequence (Q96DR4 2-205 C75S): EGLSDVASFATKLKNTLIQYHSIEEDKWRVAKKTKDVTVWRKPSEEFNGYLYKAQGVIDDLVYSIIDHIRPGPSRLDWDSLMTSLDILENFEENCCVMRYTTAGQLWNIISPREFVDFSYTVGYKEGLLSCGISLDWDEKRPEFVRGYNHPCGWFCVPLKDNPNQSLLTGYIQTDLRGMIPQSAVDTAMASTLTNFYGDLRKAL
Text: (§1) Protein expression constructs
(§2) Human ASTER domains of Aster-A(359-547), -B(364-552) and -C(318-504) were subcloned into a pGEX-6p-2rbs vector, thus introducing the cloning artifact ‘GPLGS’.3 The pGEX-6P-1-GST-OSBP(377- […]
(§3) a gift from James H. Hurley (University of California).4 The pHIS_2His6_Thrombin_STARD4(2-205;C75S) plasmid was a gift from Young Jun Im (Chonnam National University).5 STARD5A was a gift from Nicola Burgess-Brown (Addgene plasmid #42392; http://n2t.net/addgene:42392; […]
(§4) Protein expression and purification […]
(§5) vectors including an N-terminal PreScission-cleavable glutathione S-transferase (GST)-tag were expressed in Escherichia coli (E. coli) OverExpress C41 in Terrific Broth (TB) medium for 16 h at 18 °C after the induction with 0.1 mM isopropyl β-D-1-thiogalactopyranoside (IPTG). Cells were harvested at 3500 × g for 15 minutes and lysed by sonication in buffer containing 50 mM HEPES pH 7.5, 300 mM NaCl, 10 %v/v glycerol, 5 mM dithiothreitol (DTT), 0.1 %v/v Triton X-100 and protease inhibitor mix HP plus (Serva). The lysate was purified by affinity chromatography on a GSTrap FF column (Cytiva) using an ÄKTA Start (Cytiva) in buffer containing 50 mM HEPES pH 7.5, 300 mM NaCl, 10 %v/v glycerol, 5 mM DTT and 0.01 %v/v Triton X-100. The GST-tag was cleaved overnight on the column at 4 °C. The Aster sterol binding domains were further purified by size-exclusion chromatography (SEC) on a HiLoad 16/600 Superdex 75 pg (Cytiva) in buffer containing 20 mM HEPES pH 7.5, 300 mM NaCl, 10 %v/v […]
(§6) STARD5(6-213) harboring an N-terminal His6-Tag were expressed in E. coli BL21(DE3) in Luria-Bertani Broth (LB) medium for approximately 16 h at 18 °C after induction with 0.15 mM IPTG. Cells were harvested at 3500 × g for 15 minutes and lysed by sonication in buffer containing 50 mM HEPES pH 7.5, 150 mM NaCl, 5 %v/v glycerol, 5 mM DTT, 0.1 %v/v Triton X -100 and ethylenediaminetetraacetic acid (EDTA)-free protease inhibitor cocktail (Sigma-Aldrich). The cleared lysate was purified by affinity chromatography on a Ni-NTA Superflow Cartridge (Qiagen) using an ÄKTA Start (Cytiva) in buffer containing 50 mM HEPES pH 7.5, 150 mM NaCl, 5 %v/v glycerol, 5 mM DTT. START domains were eluted by using elution buffer containing 50 mM HEPES pH 7.5, 150 mM NaCl, 5 %v/v glycerol, 5 mM DTT and 500 mM imidazole. Proteins were further purified by SEC on a HiLoad 16/600 Superdex 75 pg (Cytiva) in buffer containing 20 mM HEPES pH 7.5, 150 mM NaCl, 5 %v/v glycerol and 2 mM DTT.
(§7) The ORP domain of human OSBP(377-807) in the pGEX-6p-1 vector with an N-terminal PreScission-cleavable GST-tag was expressed in E. coli OverExpress C41 in LB medium for 16 h at 18 °C after induction with 0.1 mM IPTG. Cells were harvested at 3500 × g for 15 minutes and lysed by sonication in buffer containing 20 mM HEPES pH 7.5, 300 mM NaCl, 10 %v/v glycerol, 5 mM DTT, 0.1 %v/v Triton X-100 and EDTA-free protease inhibitor cocktail (Sigma-Aldrich). The cleared lysate was purified by affinity chromatography on a GSTrap HF column (Cytiva) using an ÄKTA Start (Cytiva) in buffer containing 20 mM HEPES pH 7.5, 300 mM NaCl, 10 %v/v glycerol, 5 mM DTT. OSBP(377 -807) was eluted by using elution buffer containing 20 mM HEPES pH 7.5, 300 mM NaCl, 10 %v/v glycerol, 5 mM DTT and 10 mM reduced glutathione. Proteins were further purified by SEC on a HiLoad 16/600 Superdex 75 pg (Cytiva) using an ÄKTA Explorer (Cytiva) in buffer containing 20 mM HEPES pH 7.5, 150 mM NaCl, 10 %v/v glycerol and 2 mM DTT.
(§8) The ORP domains of human ORP1(534-950) in pET24b(+) and ORP2(49-480) in the pET24b(+) vector including an N-terminal His6-Tag were expressed in E. coli BL21(DE3) in TB medium for approximately 16 h at 18 °C after induction with 0.1 mM IPTG. Cells were collected at 3500 × g for 15 minutes and lysed by sonification in buffer containing 10 mM Tris-HCl pH 8, 300 mM NaCl, 5 % glycerol, 2 mM DTT, 0.1 % Triton X-100 and EDTA-free protease inhibitor cocktail (Sigma-Aldrich). The cleared […]

[2] = target: T2, STARD5 (Homo sapiens, UniProt Q9NSY2); experiment: Differential scanning fluorimetry (DSF), STARD5; type: binding; conditions: for STARD5 (DSF) ΔTm / ΔTm at 10 µM: single dose, Dose = 10 µM; for Kd: apparent Kd, mean of three experiments run in technical duplicates, read-out: STARD5 Kd,app (DSF); for STARD5 (DSF) ΔTmmax: maximal thermal shift
T2 construct: STARD5(6-213); host or cells: E. coli BL21(DE3)
T2 sequence (Q9NSY2 6-213): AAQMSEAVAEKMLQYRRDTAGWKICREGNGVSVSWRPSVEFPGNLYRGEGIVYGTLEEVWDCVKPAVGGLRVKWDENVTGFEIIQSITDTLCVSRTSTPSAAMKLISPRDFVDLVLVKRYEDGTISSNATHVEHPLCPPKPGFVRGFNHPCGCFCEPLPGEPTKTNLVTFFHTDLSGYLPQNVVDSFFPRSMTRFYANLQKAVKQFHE
Text: as §1, §2, §3, §4, §5, §6, §7, §8

Row | SMILES | STARD4 (DSF) ΔTm [1] [°C] | STARD5 (DSF) ΔTm [2] [°C] | Kd [1] [µM] | STARD4 (DSF) ΔTmmax [1] [°C] | ΔTm at 10 µM [1] [°C] | Kd [2] [µM] | STARD5 (DSF) ΔTmmax [2] [°C] | ΔTm at 10 µM [2] [°C]
1 | C[C@]12CC[C@@H](O)C[C@H]1CCc1c2[nH]c2ccc(Cl)cc12 [Compound 10c] | 0.284 | 0.161 |  |  |  |  |  | 
2 | CC12CCC3CC1CCC21C(=Nc2ccc(N4CCOCC4)cc21)O3 (racemic) [Compound 19a] |  |  | > 30 | 1.1 | 0.851 | > 30 | 3.7 | 1.8
3 | CC(C)(C)OC(=O)N1CCN(c2ccc3c(c2)C24CCC5CC(CCC52C)OC4=N3)CC1 (centres unmarked) [Compound 19e] |  |  | 2.86 | 8.9 | 6.6 | > 100 | 1.9 | 0.7
4 | CC12CCC(O)CC1CCc1c2[nH]c2ccc(C(F)(F)F)cc12 (centres unmarked) [Compound 10g] |  |  |  |  | 0.00665 |  |  | 0.162
5 | CC12CCC3CC1CCC21C(=Nc2ccc(Br)cc21)O3 (single isomer, unassigned; (+)) [(+)-15b] |  |  | 7.89 | 1.4 | 0.0899 | > 100 | 1.1 | -0.0628
6 | Cc1cc2nc3c(nc2cc1C)[C@@]1(C)CC[C@@H](O)C[C@H]1CC3 [Compound 7b] |  |  |  |  | 0.27 |  |  | 0.328
7 | Cc1ccc2[nH]c3c(c(=O)c2c1)C[C@@H]1C[C@H](O)CC[C@]31C [Compound 12] |  |  |  |  | -0.0238 |  |  | 0.169
8 | COc1ccc(-c2nc3c(s2)CC[C@@H]2C[C@H](O)CC[C@]32C)cc1 [Compound 8d] |  |  |  |  | 0.3 |  |  | 0.146
9 | Cc1c2c(nc3ccccc13)[C@@]1(C)CC[C@@H](O)C[C@H]1CC2 [Compound 2a] |  |  |  |  | -0.141 |  |  | 0.4
10 | Cc1ccc2c(c1)C(=O)CC[C@@H]1C[C@H](O)CC[C@]1(C)C(=O)N2 [Compound 11c] |  |  |  |  | -0.0446 |  |  | -0.119
11 | CC12CCC3CC1CCC21C(=Nc2ccc(N4CCOCC4)cc21)O3 (single isomer, unassigned; (+)) [(+)-19a] | 0.4 | 0.32 | > 50 | 1.1 |  | > 100 | 1.7 | 
12 | C[C@]12CC[C@@H](O)C[C@H]1CCC(=O)c1cc(Cl)cc(F)c1NC2=O [Compound 11f] | -0.0242 | 0.154 |  |  |  |  |  | 
13 | C[C@]12CC[C@@H](O)C[C@H]1CCc1sc(-c3ccc(F)cc3)nc12 [Compound 8e] | 0.7 | 0.216 |  |  |  |  |  | 
14 | C[C@]12CC[C@@H]3C[C@H]1CC[C@@]21C(=Nc2ccc(N4CCN(Cc5ccncc5)CC4)cc21)O3 [Compound 24] |  |  | 6.4 | 4.2 | 3 | > 100 | 0.44 | 0.216
15 | Cc1ccc2c(c1)[C@@]13CC[C@@H]4C[C@@H](CC[C@@]41C)OC3=N2 [Compound 15e] |  |  | 6.18 | 2.4 | 2.1 |  |  | 0.8
16 | C[C@]12CC[C@@H](O)C[C@H]1CCC(=O)c1cc(C(F)(F)F)ccc1NC2=O [Compound 11e] |  |  |  |  | -0.0316 |  |  | 0.115
17 | Cc1ccc2[nH]c3c(c2c1)CC[C@@H]1C[C@H](O)CC[C@]31C [Compound 10e] |  |  |  |  | 0.284 |  |  | 0.2
18 | C[C@]12CC[C@@H](O)C[C@H]1CCC(=O)c1ccccc1NC2=O [Compound 11a] | -0.0281 | 0.0733 |  |  |  |  |  | 
19 | CCCCCN(c1ccc2c(c1)[C@@]13CC[C@@H]4C[C@@H](CC[C@@]41C)OC3=N2)c1ccc2c(c1)[C@@]13CC[C@@H]4C[C@@H](CC[C@@]41C)OC3=N2 [Compound 20b] | -0.0184 | 0.0934 |  |  |  |  |  | 
20 | COc1ccc2c(c1)C(=O)CC[C@@H]1C[C@H](O)CC[C@]1(C)C(=O)N2 [Compound 11d] |  |  |  |  | -0.0249 |  |  | 0.0281
21 | C[C@]12CC[C@@H](O)C[C@H]1CCC[C@]21NC(=O)c2ccccc2N1 [Compound 5a] | -0.0769 | 0.0773 |  |  | -0.124 |  |  | 0.0253
22 | CCOC(=O)c1ccc2[nH]c3c(c2c1)CC[C@@H]1C[C@H](O)CC[C@]31C [Compound 10k] | -0.04 | 0.2 |  |  |  |  |  | 
23 | C[C@]12CC[C@@H]3C[C@H]1CC[C@@]21C(=Nc2ccc(F)cc21)O3 [Compound 15d] |  |  |  |  | 1.3 |  |  | 0.6
24 | COc1ccc2[nH]c3c(c2c1)CC[C@@H]1C[C@H](O)CC[C@]31C [Compound 10f] |  |  |  |  | 0.0284 |  |  | 0.159
25 | COc1ccc2c(c1)[C@]1(O)CC[C@@H]3C[C@H](O)CC[C@]3(C)C1=N2 [Compound 14b] |  |  |  |  | -0.1 |  |  | 0.049
